Patent publication EP1178110A1, “EDG8 receptor for sphingosine 1-phosphate , its preparation and use” (Aventis Pharma Deutschland GmbH, priority 2000, dated 2002)

Key:
human EDG8, SEQ ID NO. 2 = experiment: FLIPR assay of intracellular Ca2+ mobilization in transiently transfected CHO cells; assay type: cell-based; settings: for increase in intracellular Ca^2+: lipids at 10, 100 and 1000 nM, CHO cells with EDG8 and Gα16 or Gαqi5 (Fig.3), LPA and DHS1P active at 100 and 1000 nM, SPC and LPC tested up to 1 µM
Experimental: (§1) CHO-K1 cells were grown in basal ISCOVE medium supplemented with 10% fetal bovine serum at 37°C in a humidified 5% CO2 incubator. For transfections, 2 x 10^5 cells were seeded into 35-mm dishes. About 24 hr later cells were transiently transfected at 50-80% confluency with the indicated receptor and G-protein constructs (1µg of plasmid DNA each) using the Lipofectamine transfection reagent and the supplied protocol (GIBCO). 18-24 hr after transfection cells were seeded into 96well plates at a density of 50.000 cells per well and cultured for 18-24 additional hr until used in the functional FLIPR assays. The cDNA for Gα16 was cloned from TF1 cells by RT-PCR and ligated into the pCDNA1.1 mammalian expression vector (Invitrogen). Murine wild type Gαq was cloned from cells by RT-PCR and inserted into the BamHl-Nsil-sites of pCDNA1.1. To create the C-terminally modified Gαqi5 subunit, in which the last five aa of wt Gαq were replaced with the correspoding Gαi sequence, a 175-bp Bg/II-NsiI fragment was replaced, in a two piece ligation, with a synthetic DNA fragment, containing the desired codon changes. The correctness of all PCR-derived sequences was verified by sequencing in both directions.
(§2) Twenty-four hours after transfection, cells were splitted into 96-well, black-wall microplates (Corning) at a density of 50,000 cells per well. 18-24 hr later, cells were loaded with 95µl of HBSS containing 20 mM Hepes, 2.5 mM probenecid, 4 µM fluorescent calcium indicator dye Fluo4 (Molecular Probes) and 1% fetal bovine serum for 1 h(37°C, 5% CO2). Cells were washed three times with HBSS containing 20 mM Hepes and 2.5 mM probenecid in a cell washer. After the final wash, the solution was aspirated to a residual volume of 100 µl per 96 well. Lipid ligands were dissolved in DMSO as 2 mM stock solutions (treated with ultrasound when necessary) and diluted at least 1:100 into HBSS containing 20 mM HEPES, 2.5 mM probenecid and 0.4 mg/ml fatty acid free bovine serum albumine. Lipids were aliquoted as 2X solutions into a 96 well plate prior to the assay. The fluorometric imaging plate reader (FLIPR, Molecular Devices) was programmed to transfer 100 µl from each well of the ligand microplate to each well of the cellplate and to record fluorescence during 3 min in 1 second intervals during the first minute and 3 second intervals during the last two minutes. Total fluorescence counts from the 18-s to 37-s time points are used to determine agonist activity. The instrument software normalizes the fluorescent reading to give equivalent initial readings at time zero.

EDG5 receptor = experiment: as above; assay type: cell-based, human; settings: S1P 10, 100 and 1000 nM; CHO cells with EDG5 (Fig.2D)
Experimental: as §1, §2

EDG6 receptor = experiment: as above; assay type: cell-based, human; settings: S1P 10, 100 and 1000 nM; CHO cells with EDG6, no cotransfected G-protein α subunit (Fig.2E)
Experimental: as §1, §2

EDG1 receptor = experiment: as above; assay type: cell-based, human; settings: S1P 10, 100 and 1000 nM; CHO cells with EDG1 (Fig.2B)
Experimental: as §1, §2

EDG3 receptor = experiment: as above; assay type: cell-based, human; settings: S1P 10, 100 and 1000 nM; CHO cells with EDG3 (Fig.2C)
Experimental: as §1, §2

[1] = test system: CHO cells transfected with empty vector DNA; experiment: FLIPR assay of intracellular Ca2+ mobilization in control CHO cells without receptor; assay type: cell-based, chinese hamster; settings: S1P 10, 100 and 1000 nM; empty vector DNA (Fig.2A)
Experimental: CHO-K1 cells were grown in basal ISCOVE medium supplemented with 10% fetal bovine serum at 37°C in a humidified 5% CO2 incubator. For transfections, 2 x 10^5 cells were seeded into 35-mm dishes. About 24 hr later cells were transiently transfected at 50-80% confluency with the indicated receptor and G-protein constructs (1µg of plasmid DNA each) using the Lipofectamine transfection reagent and the supplied protocol (GIBCO). 18-24 hr after transfection cells were seeded into 96well plates at a density of 50.000 cells per well and cultured for 18-24 additional hr until used in the functional FLIPR assays. The cDNA for Gα16 was cloned from TF1 cells by RT-PCR and ligated into the pCDNA1.1 mammalian expression vector (Invitrogen). […]
Twenty-four hours after transfection, cells were splitted into 96-well, black-wall microplates (Corning) at a density of 50,000 cells per well. […] The fluorometric imaging plate reader (FLIPR, Molecular Devices) was programmed to transfer 100 µl from each well of the ligand microplate to each well of the cellplate and to record fluorescence during 3 min in 1 second intervals during the first minute and 3 second intervals during the last two minutes. Total fluorescence counts from the 18-s to 37-s time points are used to determine agonist activity. The instrument software normalizes the fluorescent reading to give equivalent initial readings at time zero.

Molecule: CCCCCCCCCCCCCCCC(O)C(N)COP(=O)(O)O (stereo not drawn) [DHS1P]
- increase in intracellular Ca^2+ (human EDG8, SEQ ID NO. 2): evoked [Ca^2+]i increases

Molecule: CCCCCCCC/C=C\CCCCCCCC(=O)OCC(O)COP(=O)(O)O (stereo not drawn) [LPA, lysophosphatidic acid]
- increase in intracellular Ca^2+ (human EDG8, SEQ ID NO. 2): evoked [Ca^2+]i increases

Molecule: CCCCCCCCCCCCCC=CC(O)C(N)COP(=O)([O-])OCC[N+](C)(C)C (stereo not drawn) [SPC, sphingosylphosphorylcholine]
- increase in intracellular Ca^2+ (human EDG8, SEQ ID NO. 2): failed to generate any significant response

Molecule: CCCCCCCCCCCCC/C=C/[C@@H](O)[C@@H](N)COP(=O)(O)O [S1P, sphingosin 1-phosphate]
- mobilization of [Ca^2+]i (EDG5 receptor): mobilize [Ca^2+]i
- Ca^2+ increase above basal levels (EDG6 receptor): failed to detect a significant Ca^2+ increase above basal levels
- mobilization of [Ca^2+]i (EDG1 receptor): mobilize [Ca^2+]i
- mobilization of [Ca^2+]i (EDG3 receptor): mobilize [Ca^2+]i
- release of [Ca^2+]i (human EDG8, SEQ ID NO. 2; S1P 10, 100 and 1000 nM, CHO cells with EDG8, no cotransfected G-protein α subunit (Fig.2F)): did not release [Ca^2+]i
- mobilization of Ca^2+ (human EDG8, SEQ ID NO. 2; S1P 10, 100 and 1000 nM, CHO cells with EDG8 cotransfected with Gα16 or Gαqi5 (Fig.2F)): gained the ability to mobilize Ca^2+
- increase in intracellular Ca^2+ (human EDG8, SEQ ID NO. 2): most potent activator of EDG8
- rises in intracellular Ca^2+ [1]: None of the applied S1P concentrations was capable of eliciting significant rises in intracellular Ca^2+

Molecule: lysophosphatidylcholine [LPC]
- increase in intracellular Ca^2+ (human EDG8, SEQ ID NO. 2): failed to generate any significant response
